This assay deals with Histomonas meleagridis. In words: In vitro lethal activity (minimal lethal concentration) towards Histomonas meleagridis culture, Trypan blue vital coloration. It is filed as cell-based. As to conditions: lowest dilution in which no live organisms were observed; H. meleagridis culture 10^6 parasites/ml, 39° C., anaerobic. How it is done:
The in vitro activity of the several essential oil compounds was assessed using the following technique. Aliquots of 1 ml of H. meleagridis culture (10^6 parasites/ml) were incubated anaerobicaly for 24 h at 39° C. Twelve two-fold dilutions of a stock solution of each compound were prepared in 96-well U bottom plates (Prolabo, Lyon, France) in Tween 80 (Sigma, L'Isle d'Abeau, France) and added to the parasites. The initial dilution was 2% ([…]). After incubation for 24 h and 48 h, the number of live parasite in each culture was estimated by vital coloration with Trypan blue 0.4% (Gibco, BRL Life technology, Cergy Pontoise, France). The lowest dilution in which no live organisms were observed was defined as the minimal lethal concentration (MLC).
In the case of `Cc1ccc(C(C)C)cc1` [cymene, p-], the “minimal lethal concentration (MLC)” value came out at 500 ppm.

In the case of `C=CC(C)(O)CCC=C(C)CCC=C(C)C` (stereo not drawn) [nerolidol], the “minimal lethal concentration (MLC)” value turned out to be 125 ppm.

As for `O=C/C=C/c1ccccc1` [cinnamaldehyde, trans-], the “minimal lethal concentration (MLC)” value turned out to be 250 ppm.

The values above are taken from patent US20130261191A1, “USE OF ESSENTIAL OIL COMPOUNDS AS HISTOMONASTAT” (DSM IP ASSETS B.V., priority 2007, published 2013).
